According to ChEMBL document CHEMBL1121773, “Interaction of aromatic dyes with the coenzyme A binding site of choline acetyltransferase” (J Med Chem, 1981):

Test system: Choline O-acetyltransferase (squid)
Experiment: Compound was tested for inhibition of choline acetyltransferase isolated from squid head ganglia; No inhibition at limit of solubility (4.4*10e-3 M)

For `O=S(=O)(O)c1ccc2ccccc2c1Nc1ccccc1`, the Ki was “No inhibition at limit of solubility”.
